US20230243016A1, “APPLICATIONS OF CARBOXYLIC COMPOUND SERVING AS EXTRACTING AGENT AND METAL ION EXTRACTION METHOD” (BOTREE CYCLING SCI & TECH CO., LTD., priority 2020, published 2023)

Assays:
[1] = Separation coefficients between trivalent ions (Example 2); type: physicochemical
Experimental: (§1) In the embodiments of the present application, after extraction, a metal ion concentration of the aqueous phase is analyzed using the inductively coupled plasma optical emission spectroscopy (ICP-OES), and a metal ion concentration of the organic phase is calculated by the difference subtraction method.
(§2) The Extractant 195 was dissolved in toluene to prepare a 0.1 mol/L organic phase, and 0.005 mol/L chloride solutions of Fe^3+, Ga^3+, In^3+, Sc^3+, Cr^3+, Al^3+, Lu^3+, Ho^3+, and Gd^3+ were prepared as aqueous phases, respectively.

[2] = Extraction performance for trivalent ions (Example 2); type: physicochemical; conditions: 0.1 mol/L in toluene, 0.005 mol/L chloride solution, O/A 1:1
Experimental: as §1, §2

[3] = Extraction from a battery material solution (Example 3, Comparative Example 4); type: physicochemical; conditions: 0.6 mol/L in Escaid 110
Experimental: as §1
Extractant 196 was dissolved in Escaid 110 to prepared a 0.6 mol/L organic phase, and the battery material solution contained Ni (46.20 g/L), Co (20.56 g/L), Mn (23.93 g/L), Ca (0.43 g/L), and Mg (0.21 g/L).
The extractant was dissolved in Escaid 110 and prepared to a 0.6 mol/L organic phase, and a battery material solution contained Ni (46.20 g/L), Co (20.56 g/L), Mn (23.93 g/L), Ca (0.43 g/L), and Mg (0.21 g/L). […] By observing the experimental phenomenon where the extractant exists in the battery material solution system, it can be seen that when the aqueous phase equilibrium pH is greater than 5.33, the phase separation phenomenon becomes worse, the aqueous phase is turbid and viscous, and the organic phase gradually becomes colorless; it can be seen from FIG. 7 that when the aqueous phase equilibrium pH is greater than 5.33, the extraction capability of the extractant for metal ions decreases.

[4] = Extraction for a magnesium-enriched nickel chloride solution (Example 5); type: physicochemical; conditions: 0.31 mol/L in dodecane; chloride solution 1.33 g/L Ni, 4 g/L Mg; O/A 1:1
Experimental: as §1
Extractant 191 was dissolved in dodecane to prepare a 0.31 mol/L organic phase, and an aqueous phase was the magnesium-enriched nickel chloride solution containing 1.33 g/L Ni and 4 g/L Mg.

[5] = Extraction performance for non-ferrous metal ions (Example 1); type: physicochemical; conditions: 0.2 mol/L in dodecane, 0.01 mol/L sulfate solution, O/A 1:1
Experimental: as §1
(§3) Extractant 191 was dissolved in dodecane to prepare a 0.2 mol/L organic phase, and 0.01 mol/L sulfate solutions of Cu^2+, Zn^2+, Cd^2+, Ni^2+, Co^2+, Mn^2+, Ca^2+, Mg^2+, and Li^+ were prepared as aqueous phases, respectively.

[6] = Separation coefficients between non-ferrous metal ions (Example 1, Comparative Example 3); type: physicochemical
Experimental: as §1, §3
This comparative example differs from Example 1 in that Extractant 191 was replaced with extractant Versatic 10 (commercially available, with an acid content of 98%).

[7] = Back extraction of organic phase loaded with rare earth ions (Example 8); type: physicochemical; conditions: organic phase loaded with 0.10 mol/L Lu; 1.0 mol/L hydrochloric acid; O/A 1:1
[8] = organic phase loaded with Lu; 4 mol/L hydrochloric acid (general practice); cited from earlier work
[9] = Saturation capacity test for Ni^2+ (Example 7); type: physicochemical; conditions: 0.6 mol/L in dodecane, saponified to 60%; repeated contact with 50 g/L NiSO4
Description: The organic phase was back-extracted and the saturation capacity of Extractant 196 for Ni^2+ was obtained to be about 16.9 g/L.

[10] = Extraction performance for rare earth ions, mixed chloride solution (Example 4); type: physicochemical; conditions: 2 mol/L in dodecane, O/A 1:1, ammonia saponification
Experimental: as §1

[11] = aqueous phase equilibrium pH greater than 5.33, O/A 8:1
[12] = pH½, Example 1 / Comparative Example 3 system

For `CCCCCCCC(CCCCC)C(=O)O` (stereo not drawn) [Extractant 195], the “Separation coefficients between various ions (all pairs)” value ([1]; Fe^3+, Ga^3+, In^3+, Sc^3+, Cr^3+, Al^3+, Lu^3+, Ho^3+, Gd^3+) was “greater than 1”, the “Separation coefficient Fe^3+ / Al^3+” value ([1]; Fe^3+, row Al^3+, Example 2 system) was 95499.26 and the “Separation coefficient Fe^3+ / Cr^3+” value ([1]; Fe^3+, row Cr^3+, Example 2 system) was 1862.09. The “Separation coefficient Fe^3+ / Ga^3+” value ([1]; Fe^3+, row Ga^3+, Example 2 system) was 95.50, the “Separation coefficient Fe^3+ / In^3+” value ([1]; Fe^3+, row In^3+, Example 2 system) was 177.83 and the “Separation coefficient Fe^3+ / Sc^3+” value ([1]; Fe^3+, row Sc^3+, Example 2 system) was 1230.27. For the same molecule, the “Separation coefficient Ga^3+ / Al^3+” value ([1]; Ga^3+, row Al^3+, Example 2 system) was 1000.00, the “Separation coefficient Ga^3+ / Cr^3+” value ([1]; Ga^3+, row Cr^3+, Example 2 system) was 19.50 and the “Separation coefficient Ga^3+ / In^3+” value ([1]; Ga^3+, row In^3+, Example 2 system) was 1.86. For the same molecule, the “Separation coefficient Ga^3+ / Sc^3+” value ([1]; Ga^3+, row Sc^3+, Example 2 system) was 12.88, the “Separation coefficient In^3+ / Al^3+” value ([1]; In^3+, row Al^3+, Example 2 system) was 537.03 and the “Separation coefficient In^3+ / Cr^3+” value ([1]; In^3+, row Cr^3+, Example 2 system) was 10.47. The “Separation coefficient In^3+ / Sc^3+” value ([1]; In^3+, row Sc^3+, Example 2 system) was 6.92, the “Separation coefficient Cr^3+ / Al^3+” value ([1]; column Cr^3+, row Al^3+, Example 2 system) was 51.29 and the “Separation coefficient Ho^3+ / Gd^3+” value ([1]; column Ho^3+, row Gd^3+, Example 2 system) was 3.98. For the same molecule, the “Separation coefficient Lu^3+ / Gd^3+” value ([1]; column Lu^3+, row Gd^3+, Example 2 system) was 15.85, the “Separation coefficient Lu^3+ / Ho^3+” value ([1]; column Lu^3+, row Ho^3+, Example 2 system) was 3.98 and the “Separation coefficient Sc^3+ / Al^3+” value ([1]; column Sc^3+, row Al^3+, Example 2 system) was 77.62. The “Separation coefficient Sc^3+ / Cr^3+” value ([1]; column Sc^3+, row Cr^3+, Example 2 system) was 1.51, the “Extraction pH½ for Al^3+” value [2] was 3.60 and the “Extraction pH½ for Cr^3+” value [2] was 3.03. The “Extraction pH½ for Ga^3+” value [2] was 2.60, the “Extraction pH½ for Gd^3+” value [2] was 5.46 and the “Extraction pH½ for Ho^3+” value [2] was 5.26. For the same molecule, the “Extraction pH½ for In^3+” value [2] was 2.69, the “Extraction pH½ for Lu^3+” value [2] was 5.06 and the “Extraction pH½ for Sc^3+” value [2] was 2.97. For the same molecule, the “Extraction pH½ for Fe^3+” value ([2]; pH by 8 mol/L NaOH saponification) was 1.94.

With `CCCCCCCCCCCCCCCCCC(=O)O` [stearic acid, reference compound] the “Extraction capability for metal ions (FIG. 7)” value [3, 11] was “decreases” and the Phase separation phenomenon [3, 11] was “becomes worse”.

In the case of `CCCCCCCCCCC(CCCCCC)C(=O)O` (stereo not drawn) [Extractant 191], the “Extraction order of nickel and magnesium (FIG. 6)” value [4] is reported as “extracts nickel in order before magnesium”, the “Separation coefficient between nickel and magnesium” value [4] is reported as “about 833” and the “Extraction pH½ for Ca^2+” value [5] is reported as 7.32. For the same molecule, the “Extraction pH½ for Cd^2+” value [5] was 6.38, the “Extraction pH½ for Co^2+” value [5] was 7.00 and the “Extraction pH½ for Li^+” value [5] was 9.75. For the same molecule, the “Extraction pH½ for Mg^2+” value [5] was 7.59, the “Extraction pH½ for Mn^2+” value [5] was 7.01 and the “Extraction pH½ for Ni^2+” value [5] was 6.85. The “Extraction pH½ for Zn^2+” value [5] was 5.91, the “Extraction pH½ for Cu^2+” value ([5]; pH by 6 mol/L NaOH saponification) was 4.49 and the “Separation coefficient Cd^2+ / Ca^2+” value ([6]; Cd^2+, row Ca^2+, Example 1 system) was 75.86. For the same molecule, the “Separation coefficient Cd^2+ / Co^2+” value ([6]; Cd^2+, row Co^2+, Example 1 system) was 17.38, the “Separation coefficient Cd^2+ / Mg^2+” value ([6]; Cd^2+, row Mg^2+, Example 1 system) was 263.03 and the “Separation coefficient Cd^2+ / Mn^2+” value ([6]; Cd^2+, row Mn^2+, Example 1 system) was 18.20. The “Separation coefficient Cd^2+ / Ni^2+” value ([6]; Cd^2+, row Ni^2+, Example 1 system) was 8.71, the “Separation coefficient Co^2+ / Ca^2+” value ([6]; Co^2+, row Ca^2+, Example 1 system) was 4.37 and the “Separation coefficient Co^2+ / Mg^2+” value ([6]; Co^2+, row Mg^2+, Example 1 system) was 15.14. For the same molecule, the “Separation coefficient Co^2+ / Mn^2+” value ([6]; Co^2+, row Mn^2+, Example 1 system) was 1.05, the “Separation coefficients between various ions (all pairs)” value ([6]; Cu^2+, Zn^2+, Cd^2+, Ni^2+, Co^2+, Mn^2+, Ca^2+, Mg^2+, Li^+) was “greater than 1” and the “Separation coefficient Cu^2+ / Ca^2+” value ([6]; Cu^2+, row Ca^2+, Example 1 system) was 457088.19. The “Separation coefficient Cu^2+ / Cd^2+” value ([6]; Cu^2+, row Cd^2+, Example 1 system) was 6025.60, the “Separation coefficient Cu^2+ / Co^2+” value ([6]; Cu^2+, row Co^2+, Example 1 system) was 104712.85 and the “Separation coefficient Cu^2+ / Mg^2+” value ([6]; Cu^2+, row Mg^2+, Example 1 system) was 1584893.19. The “Separation coefficient Cu^2+ / Mn^2+” value ([6]; Cu^2+, row Mn^2+, Example 1 system) was 109647.82, the “Separation coefficient Cu^2+ / Ni^2+” value ([6]; Cu^2+, row Ni^2+, Example 1 system) was 52480.75 and the “Separation coefficient Cu^2+ / Zn^2+” value ([6]; Cu^2+, row Zn^2+, Example 1 system) was 691.83. For the same molecule, the “Extraction order of ions (FIG. 1)” value ([6]; E%-pH curves, Example 1) was “extracts nickel and cobalt ions in order before calcium and magnesium”, the “Separation coefficient Ni^2+ / Ca^2+” value ([6]; Ni^2+, row Ca^2+, Example 1 system) was 8.71 and the “Separation coefficient Ni^2+ / Co^2+” value ([6]; Ni^2+, row Co^2+, Example 1 system) was 2.00. For the same molecule, the “Separation coefficient Ni^2+ / Mg^2+” value ([6]; Ni^2+, row Mg^2+, Example 1 system) was 30.20, the “Separation coefficient Ni^2+ / Mn^2+” value ([6]; Ni^2+, row Mn^2+, Example 1 system) was 2.09 and the “Separation coefficient Zn^2+ / Ca^2+” value ([6]; Zn^2+, row Ca^2+, Example 1 system) was 660.69. The “Separation coefficient Zn^2+ / Cd^2+” value ([6]; Zn^2+, row Cd^2+, Example 1 system) was 8.71, the “Separation coefficient Zn^2+ / Co^2+” value ([6]; Zn^2+, row Co^2+, Example 1 system) was 151.36 and the “Separation coefficient Zn^2+ / Mg^2+” value ([6]; Zn^2+, row Mg^2+, Example 1 system) was 2290.87. The “Separation coefficient Zn^2+ / Mn^2+” value ([6]; Zn^2+, row Mn^2+, Example 1 system) was 158.49, the “Separation coefficient Zn^2+ / Ni^2+” value ([6]; Zn^2+, row Ni^2+, Example 1 system) was 75.86 and the “Separation coefficient Ca^2+ / Mg^2+” value ([6]; column Ca^2+, row Mg^2+, Example 1 system) was 3.47. For the same molecule, the “Separation coefficient Mn^2+ / Ca^2+” value ([6]; column Mn^2+, row Ca^2+, Example 1 system) was 4.17, the “Separation coefficient Mn^2+ / Mg^2+” value ([6]; column Mn^2+, row Mg^2+, Example 1 system) was 14.45 and the “βNi/Ca (separation coefficient)” value [6, 12] was 8.71. The “βNi/Co (separation coefficient)” value [6, 12] was 2.00, the “βNi/Mg (separation coefficient)” value [6, 12] was 30.2 and the “βNi/Mn (separation coefficient)” value [6, 12] was 2.09. For the same molecule, the “βNi/Zn (separation coefficient)” value [6, 12] was 75.86 and the “Separation coefficients higher compared with Versatic 10” value ([6]; same test condition) was 20-30%.

For `CCCCCCCCC(CC)C(=O)O` (stereo not drawn) [Extractant 192], the Back extraction rate [7] was “greater than 99%”.

In the case of `CCCCC(CC)COP(=O)(O)CC(CC)CCCC` (stereo not drawn) [Extractant P507], the “Primary back extraction rate” value [8] is given as “about 80%”.

For `CCCCCCCCC(CCCCCC)C(=O)O` (stereo not drawn) [Extractant 196], the “Extraction of Ni, Co and Mn from the battery material solution” value ([3]; O/A 8:1, pH greater than 6.8) was “almost completely extracted”, the “Extraction rate of Ca and Mg from the battery material solution” value ([3]; O/A 8:1, pH greater than 6.8) was “low extraction rate” and the “Extraction of Ni, Co and Mn from the battery material solution” value ([3]; pH less than 7.2, O/A 5:1 and 8:1) was “selectively extracted”. For the same molecule, the “Saturation capacity for Ni^2+” value [9] was “about 16.9 g/L” and the “Extraction ability for rare earth ions (FIG. 5)” value [10] was “gradually decreases from heavy rare earths to light rare earths”.
